A short description of data set [1]: Pharmacokinetic study of ILY-4001, IV and oral (Example 1B-3). It counts as in vivo, mice. Particulars: 30 mg/kg oral. Here is the method: This example evaluated the bioavailability of ILY-4001 [2-(3-(2-amino-2-oxoacetyl)-1-(biphenyl-2-ylmethyl)-2-methyl-1H-indol-4-yloxy)acetic acid], alternatively referred to herein as methyl indoxam. Specifically, a pharmokinetic study was conducted to determine the fraction of unchanged ILY-4001 in systemic circulation following administration.
Bioavailability was calculated as a ratio of AUC-oral/AUC-intravenous (IV). To determine this ratio, a first set of subject animals were given a measured intravenous (IV) dose of ILY-4001, followed by a determination of ILY-4001 levels in the blood at various time points after administration (e.g., 5 minutes through 24 hours). Another second set of animals was similarly dosed using oral administration, with blood levels of ILY-4001 determined at various time points after administration (e.g., 30 minutes through 24 hours). The level of ILY-4001 in systemic circulation were determined by generally accepted methods (for example as described in Evans, G., A Handbook of Bioanalysis and Drug Metabolism. Boca Raton, CRC Press (2004)). Specifically, […]/mass spectrometry/mass spectrometry (LC/MS/MS) analytical methods were used to quantitate plasma concentrations of ILY-4001 after oral and intravenous administration. Pharmacokinetic parameters that were measured include Cmax, AUC, tmax, t1/2, and F (bioavailability). […]

The nature of data set [2]: In-vitro Caco-2 permeability study (Example 1B-2). As to conditions: human. (In general: Passage across Caco-2 layers is used to estimate intestinal permeability.)
A short description of data set [3]: Bioavailability study, IV vs oral (Example 13). As to conditions: male, CD-1, mouse, plasma; oral ~30 mg/kg vs IV ~3 mg/kg. Format: in vivo, male CD-1 mice. Here is the method: Bioavailability was determined for Compound 5-24 (ILY-V-24) as follows. Generally, the bioavailability was calculated by comparing a timecourse of the concentration of the test compound in the serum of mice after an intravenous (IV) dosing, versus the timecourse of the concentration following an oral dosing of the test compound. The IV dose was ˜3 mg/kg, the oral dose was ˜30 mg/kg.
Oral Formulation. The oral formulation was prepared as follows. To sterile flask, 90 ml of sterile Milli-Q water was added. 9 ml of PEG-400 was added (final concentration of 9%). 50 ul of Tween-80 was added (final concentration of 0.05%). 0.9 g of CMC was weighed and added (final concentration of 0.9% w/v). […]
Study Design. […] On study day 0, all the animals were weighed, dosages were calculated and the animals were dosed by oral route (PO) or (IV) as outlined below in Table 5. […]
Calculations. Bioavailability was calculated as follows. Individual doses were calculated based on an average of body weights taken on the day of dosing. Serum concentrations of test compound, as well as the actual concentration of dosing solutions, were measured using 2-dimensional Mass Spectrophotometry after Liquid Chromatography (LC MS/MS). […]

What is called Papp A→B is how fast a substance crosses the layer from the apical side. Read a high Papp A→B as ready permeation. On to `Cc1c(C(=O)C(N)=O)c2c(OCC(=O)O)cccc2n1Cc1ccccc1-c1ccccc1` [ILY-4001, 2-(3-(2-amino-2-oxoacetyl)-1-(biphenyl-2-ylmethyl)-2-methyl-1H-indol-4-yloxy)acetic acid], for which the “level of non-absorption from the GI tract into systemic circulation” value in data set [1] is given as roughly 72%. Also, the Papp A→B at 6 hr, 50 ug/ml in data set [2] was roughly 0.166 ×10⁻⁶ cm/s.
The bioavailability is dose-corrected exposure relative to a reference, in per cent. A high value points to good availability. Consider `Cc1c(C(=O)C(N)=O)c2c(OCC(=O)O)cccc2n1CCCCCCCCSCCCCCCCCSCCCCCCCCn1c(C)c(C(=O)C(N)=O)c2c(OCC(=O)O)cccc21` [ILY-V-24, 2,2′-(1,1′-(8,8′-(Octane-1,8-diylbis(sulfanediyl))bis(octane-8,1-diyl))bis(3-(2-amino-2-oxoacetyl)-2-methyl-1H-indole-4,1-diyl))bis(oxy)diacetic acid], for which the bioavailability in data set [3] fell in the range of 4 to 8%.

These data come from patent US20070135383A1, “Phospholipase inhibitors, including multi-valent phospholipase inhibitors, and use thereof, including as lumen-localized phospholipase inhibitors” (priority 2005, published 2007).
